Experimental findings from patent US20130317134A1, “TISSUE ADHESIVE BASED ON TRIFUNCTIONAL ASPARTATES” (Bayer Intellectual Property GmbH Creative Campus Monheim, priority 2011, published 2013) are described below.

The structures appear in SMILES notation.

The data set has as its system L929 cells. Nature of the data set: Cytotoxicity of the cured adhesive in accordance with ISO 10993-5:2009. The note with it: adhesive of Prepolymer C cured with equivalent amount of curing agent. It is filed as cell-based. As for the experimental part:
Prepolymer C was reacted with an equivalent amount of 3. The cytotoxicity was measured in accordance with ISO 10993-5:2009 using L929 cells.
4 g of prepolymer C were stirred thoroughly in a beaker with an equivalent amount of (5) and cured. The adhesive was measured in accordance with ISO 10993-5:2009 using L929 cells.

Turning to `CCOC(=O)CC(NCCCC(CCCNC(CC(=O)OCC)C(=O)OCC)CCCNC(CC(=O)OCC)C(=O)OCC)C(=O)OCC` (stereo not drawn) [Compound 3, Tetraethyl 2,2′-(4-(3-(1,4-diethoxy-1,4-dioxobutan-2-ylamino)propyl)heptane-1,7-diyl)bis-(azandiyl)disuccinate], the cell viability entry is “no reduction in cell viability” and the cytotoxicity category entry is given as “not to be categorised as cytotoxic”.

In the case of `CCOC(=O)CC(NCCCCC(CCCNC(CC(=O)OCC)C(=O)OCC)CNC(CC(=O)OCC)C(=O)OCC)C(=O)OCC` (stereo not drawn) [Compound 5, Diethyl 2-[(8-[(1,4-diethoxy-1,4-dioxobutan-2-yl)amino]-4-{[(1,4-diethoxy-1,4-dioxobutan-2-yl)-amino]methyl}octyl)amino]butanedioate, reference compound], the cytotoxicity category entry is listed as “high cyctotoxicity”.
